Laboratory results: paper PMC7395068, “The evolution of strategies to minimise the risk of human drug-induced liver injury (DILI) in drug discovery and development” (Archives of Toxicology, 2020)
Where two headings read alike, the source gives them in different places.

Legend:
[1] = test system: HepG2 cells; conditions: cited from earlier work
[2] = Plasma free fraction (fu) and unbound Cmax (Cmax,u); assay type: in vitro ADME, human; conditions: unbound plasma Cmax
[3] = test system: HepaRG spheroids; assay: Combined HCI (HCS) and cellular ATP 3D assay in HepaRG spheroids; conditions: for AC50 / minimal effective concentration: Homo sapiens
[4] = test system: primary human hepatocytes, NIH3T3 fibroblasts, BSEP, CYP3A4; conditions: cited from earlier work
[5] = test system: THLE or HepG2 cells, isolated mitochondria, BSEP; conditions: cited from earlier work
[6] = test system: rBsep; conditions: In vitro Assay; ref Dawson 2012; cited from earlier work
[7] = test system: hLiMTs; assay: Combined HCI (HCS) and cellular ATP 3D assay in hLiMTs; conditions: for AC50 / minimal effective concentration: Homo sapiens
[8] = test system: HepG2 C3A spheroid, BSEP, Glu/Gal in HepG2 cells, bioactivation; conditions: cited from earlier work
[9] = test system: PHH spheroids; conditions: In vitro Assay; ref Vorrink 2018; cited from earlier work
[10] = read-out: Human plasma Cmax; total plasma Cmax.tot, median of 9 literature references; cited from earlier work
[11] = test system: isolated mouse liver mitochondria; conditions: In vitro Assay; ref Porceddu 2012; cited from earlier work
[12] = test system: HepG2; parameters: method as in Albrecht 2019; conditions: In vitro Assay; ref Albrecht 2019; cited from earlier work
[13] = cited from earlier work
[14] = test system: PHH; conditions: cited from earlier work
[15] = test system: HepG2 cells, primary human hepatocytes; conditions: In vitro Assay; ref Garside 2014; cited from earlier work
[16] = test system: HepG2 cells; conditions: cited from earlier work; remark: listed apart in the source
[17] = test system: THLE-Null and THLE-3A4 cells; conditions: In vitro Assay; ref Gustafsson 2014; cited from earlier work
[18] = test system: human hepatocytes; conditions: cited from earlier work
[19] = plasma free fraction; cited from earlier work
[20] = test system: PHH; conditions: In vitro Assay; ref Albrecht 2019; cited from earlier work
[21] = test system: hLiMTs; conditions: cited from earlier work
[22] = cited from earlier work; remark: listed apart in the source
[23] = In vitro Assay, ref Persson 2013
[24] = Microtissue model structural based (HCI), combined HCS and ATP, MEC < 25 × Cmax.tot cut-off
[25] = In vitro Assay, ref Schadt 2015
[26] = Modeled in vitro assays (cytotoxicity, mitochondrial dysfunction, BSEP), ref Aleo et al. 2019
[27] = In vitro Assay, ref Proctor 2017

Human plasma Cmax,u [2]: 0.064 µM | HepaRG <25x Avg Cmax ATP ([3]; HepaRG, ATP endpoint, cut-off <25x Avg Cmax): +ve | HepaRG <100x Avg Cmaxu ATP ([3]; HepaRG, ATP endpoint, cut-off <100x Avg Cmaxu): -ve | HepaRG <25x Avg Cmax HCS ([3]; HepaRG, HCS endpoints, cut-off <25x Avg Cmax): +ve | HepaRG <100x Avg Cmaxu HCS ([3]; HepaRG, HCS endpoints, cut-off <100x Avg Cmaxu): -ve | HepaRG <25x Avg Cmax All ([3]; HepaRG, all endpoints (ATP and HCS), cut-off <25x Avg Cmax): +ve | HepaRG Cmax max All ([3]; HepaRG, all endpoints, Cmax max used): +ve | HepaRG Cmax min All ([3]; HepaRG, all endpoints, Cmax min used): +ve | HepaRG <10 uM All ([3]; HepaRG, all endpoints, cut-off <10 uM): -ve | HepaRG <100x Avg Cmaxu All ([3]; HepaRG, all endpoints, cut-off <100x Avg Cmaxu): -ve | hLiMTs <25x Avg Cmax ATP ([7]; hLiMTs, ATP endpoint, cut-off <25x Avg Cmax): +ve | hLiMTs <100x Avg Cmaxu ATP ([7]; hLiMTs, ATP endpoint, cut-off <100x Avg Cmaxu): -ve | hLiMTs <25x Avg Cmax HCS ([7]; hLiMTs, HCS endpoints, cut-off <25x Avg Cmax): +ve | hLiMTs <100x Avg Cmaxu HCS ([7]; hLiMTs, HCS endpoints, cut-off <100x Avg Cmaxu): -ve | hLiMTs <25x Avg Cmax All ([7]; hLiMTs, all endpoints (ATP and HCS), cut-off <25x Avg Cmax): +ve | hLiMTs Cmax max All ([7]; hLiMTs, all endpoints, Cmax max used): +ve | hLiMTs Cmax min All ([7]; hLiMTs, all endpoints, Cmax min used): +ve | hLiMTs <10 uM All ([7]; hLiMTs, all endpoints, cut-off <10 uM): -ve | hLiMTs <100x Avg Cmaxu All ([7]; hLiMTs, all endpoints, cut-off <100x Avg Cmaxu): -ve
Structure (SMILES): Cc1c(C)c2c(c(C)c1O)CCC(C)(COc1ccc(CC3SC(=O)NC3=O)cc1)O2 (stereo not drawn) [troglitazone, reference compound]
Cluser analysis [1, 23]: +VE | Structural based (HCI) [1, 23]: +VE | DILI in vitro assay prediction, Persson (2013) ([1]; Structural based (HCI), HepG2, ref Persson et al. 2013): +VE | AC50 ([3]; HepaRG, read-out: ATP endpoint AC50): 28.8 µM | minimal effective concentration ([3]; HepaRG, read-out: ATP endpoint MEC): 25 µM | AC50 ([3]; HepaRG, read-out: HCS endpoint AC50): 33 µM | minimal effective concentration ([3]; HepaRG, read-out: HCS endpoint MEC): 22 µM | DILI prediction HepaRG spheroids (HCS-MEC) [3, 24]: +VE (MEC < 25 × Cmax.tot cut-off) | DILI in vitro assay prediction, Schadt (2015) ([4]; BSEP & Metabolism based, ref Schadt et al. 2015): +VE | Cellular toxicity (3T3 cells) [4, 25]: +VE | Combined Assay [4, 25]: +VE | GSH adduct HML [4, 25]: +VE | Hepatocyte cellular toxicity [4, 25]: +VE | MitoTox 3T3 [4, 25]: -VE | TDI CYP3A4 [4, 25]: +VE | hBSEP inhibition [4, 25]: +VE | Partition Hybrid HRM Score ([5]; In vitro Assay, ref Aleo 2019): +VE | Ro2 Hybrid HRM Score ([5]; In vitro Assay, ref Aleo 2019): +VE | Partition Hybrid HRM Score ≥4, Aleo (2019) [5, 26]: +VE (Partition Hybrid HRM Score ≥4) | Partition Hybrid HRM Score ≥8, Aleo (2019) [5, 26]: +VE (Partition Hybrid HRM Score ≥8) | Rule of Two hybrid HRM Score ≥3, Aleo (2019) [5, 26]: +VE (Rule of Two hybrid HRM Score ≥3) | Rule of Two hybrid HRM Score ≥8, Aleo (2019) [5, 26]: +VE (Rule of Two hybrid HRM Score ≥8) | Inhibition of rBsep cutoff<1& cmax u>.2 [6]: +VE | Inhibition of rBsep cutoff<3 [6]: +VE | AC50 ([7]; read-out: ATP endpoint AC50): 89.5 µM | minimal effective concentration ([7]; read-out: ATP endpoint MEC): 74 µM | AC50 ([7]; read-out: HCS endpoint AC50): 73.6 µM | minimal effective concentration ([7]; read-out: HCS endpoint MEC): 67.6 µM | DILI prediction hLiMTs (HCS-MEC) [7, 24]: +VE (MEC < 25 × Cmax.tot cut-off) | Bayesian Machine Learning DILI prediction, Williams (2019) ([8]; Bayesian modeling, ref Williams et al. 2019): +VE | Bayesian Machine Learning ([8]; In vitro Assay, ref Williams 2019): +VE | hLiMTs ATP <20 x Cmax [9]: +VE (IC20 < 20 × Cmax.tot cut-off) | Cmax [10]: 6.39 µM | in vitro data EC2<=1x Cmax [11]: +VE | in vitro data EC20<=2uM [11]: +VE | Cytotoxicity HepG2 48 hrs [12]: +VE | Assigned DILI category ([13]; Chen et al. 2016 or literature alignment, ref Chen et al. 2016): 3 | In vivo DILI ([13]; […]): +VE | In vivo DILI ([13]; ref Albrecht 2019): +VE | In vivo DILI ([13]; ref Aleo 2019): +VE | In vivo DILI ([13]; ref Dawson 2012): +VE | In vivo DILI ([13]; ref Garside 2014): +VE | In vivo DILI ([13]; ref Gustafsson 2014): +VE | In vivo DILI ([13]; ref Persson 2013): +VE | In vivo DILI ([13]; ref Porceddu 2012): +VE | In vivo DILI ([13]; ref Proctor 2017): +VE | In vivo DILI ([13]; ref Schadt 2015): +VE | In vivo DILI ([13]; ref Tolosa 2012): +VE | In vivo DILI ([13]; ref Vorrink 2018): +VE | In vivo DILI ([13]; ref Williams 2019): +VE | In vivo DILI ([13]; ref Xu 2008): +VE | PHH/100xCmax, Proctor (2017) ([14]; 2D PHH, ATP, IC50 < 100 × Cmax.tot, ref Proctor et al. 2017): -VE | PHH/100uM, Proctor (2017) ([14]; 2D PHH, ATP, IC50 threshold 100 µM, ref Proctor et al. 2017): -VE | PHH ATP <100uM [14, 27]: -VE | Cluster 1-6 +VE Assay [15]: +VE | Structural based (HCI) ([16]; In vitro Assay, ref Tolosa 2012): +VE | DILI in vitro assay prediction, Tolosa (2012) ([16]; Structural based (HCI), HepG2, ref Tolosa et al. 2012): +VE | THLE-Null [17]: +VE | THLE-Null/3A4 [17]: -VE | Structural based (HCI) ([18]; In vitro Assay, ref Xu 2008): +VE | DILI in vitro assay prediction, Xu (2008) ([18]; Structural based (HCI), human hepatocytes, ref Xu et al. 2008): +VE | fu [19]: 0.010 | Cytotoxicity PHH 48 hrs [20]: +VE | hLiMTs ATP <100uM [21, 27]: +VE (IC50 threshold of 100 µM) | hLiMTs/100xCmax, Proctor (2017) ([21]; hLiMTs, ATP, IC50 < 100 × Cmax.tot, ref Proctor et al. 2017): +VE (IC50 < 100 × Cmax.tot) | hLiMTs/100uM, Proctor (2017) ([21]; hLiMTs, ATP, IC50 threshold 100 µM, ref Proctor et al. 2017): +VE (IC50 threshold of 100 µM) | DILI severity category (Chen et al. [2016]) ([22]; LTKB DILIrank category, ref Chen et al. 2016): Most | DILI severity category (Chen 2016) ([22]; human DILI classification, LTKB DILIrank, ref Chen et al. 2016): Most | DILI severity category ([22]; human DILI severity, ref Chen et al.): Most | DILI +VE (5-8), DILI -VE (-4) ([22]; ref Chen 2016): +VE | DILI severity category ([22]; ref Chen 2016): vMost-DILI-Concern
